Measured values as given in patent publication US10933064B2, “Crystalline forms of 5-bromo-2,6-di(1H-pyrazol-1-yl)pyrimidin-4-amine and new salts” (Novartis AG, priority 2017, dated 2021).
Values after ≈ are worked out from the molar mass of the structure shown.

Key:
[1] = Intrinsic dissolution rate; format: physicochemical
[2] = Granulation simulation experiments (XRPD, DSC); format: physicochemical; conditions: ground at 25° C.
Procedure: The physical stability of crystalline form F was also evaluated in granulation simulation experiments. In these experiments granulating solvent was added dropwise to the crystalline form F until the solid is wetted sufficiently. The mixture was then ground in a mortar/pestle at room temperature (25° C. for 2-3 minutes) between each addition. The crystallinity of the material (post-grinding) was re-evaluated by XRPD and DSC.

physchem = conditions: aqueous buffer
[3] = 1 week, 0.1 %, pH 1.2
[4] = Thermal stability of the crystalline form on heating and cooling (XRPD); format: physicochemical; conditions: heating to 220° C. (melt) then cooling to 30° C.
[5] = Physical stability on compression (XRPD); format: physicochemical; conditions: 5 minutes at 0.5 ton, 0.8 cm diameter disc
Procedure: The crystallinity of form F was evaluated by XRPD after compression for 5 minutes at 0.5 ton with 0.8 cm diameter disc.

[6] = Hygroscopicity, water sorption-desorption isotherm (DVS); format: physicochemical
Text: Crystalline form F is non-hygroscopic.

[7] = Phase change on exposure to humidity; format: physicochemical
[8] = 1 week
[9] = Solubility in aqueous buffers and bio-relevant media; conditions: the salt dissociates
[10] = Stability when blended with excipients; format: physicochemical; conditions: four excipients (gelatin, HPMC, wet granulation mixture, dry blended mixture), 50° C./75% RH

| intrinsic dissolution ([1]; 0.01N HCl pH=2, listed as form F) [mg/cm^2/min] | intrinsic dissolution ([1]; acetate buffer pH 4.7, listed as form F) [mg/cm^2/min] | intrinsic dissolution ([1]; phosphate buffer pH 6.8, listed as form F) [mg/cm^2/min] | form change after granulation simulation ([2]; ethanol as granulation solvent) | form change after granulation simulation ([2]; water as granulation solvent) | solubility (physchem) [µg/mL] | degradation in buffer solution [3] [%] | degradation in buffer solutions [3] | crystalline form after heating and cooling [4] | form change after compression [5] | hygroscopicity ([6]; DVS, 25° C.) | moisture absorbed ([6]; DVS, up to 90% relative humidity, 25° C.) | phase change on exposure to humidity [7] | degradation in bulk [8] | intrinsic dissolution ([1]; 0.01N HCl pH=2) [mg/cm^2/min] | intrinsic dissolution ([1]; acetate buffer pH 4.7) [mg/cm^2/min] | intrinsic dissolution ([1]; phosphate buffer pH 6.8) [mg/cm^2/min] | hygroscopicity ([6]; relative humidity above 70%) | degradation when blended with excipients [10] | Compound | solubility compared with free form F [9] |
| --- | --- | --- | --- | --- | --- | --- | --- | --- | --- | --- | --- | --- | --- | --- | --- | --- | --- | --- | --- | --- |
| 0.0115 | 0.0085 | 0.0084 | no form change | no form change | ~100 (≈ 327 µM) | 1 | less than 0.5% | remains unchanged | no form change | non-hygroscopic | less than 0.2% | little to no phase change | less than 1% | – | – | – | – | – | Nc1nc(-n2cccn2)nc(-n2cccn2)c1Br [Form F, 5-bromo-2,6-di(1H-pyrazol-1-yl)pyrimidin-4-amine] | – |
| – | – | – | – | – | – | – | – | – | – | – | – | – | – | 0.0592 | 0.0264 | 0.0277 | very hygroscopic | about 1% | Nc1nc(-n2cccn2)nc(-n2cccn2)c1Br [Form C, 5-bromo-2,6-di(1H-pyrazol-1-yl)pyrimidin-4-amine] | does not show any better solubility than the free form F |
